The values below come from patent US20180318473A1, “DRUGS WITH IMPROVED HYDROPHOBICITY FOR INCORPORATION IN MEDICAL DEVICES” (Abraxis BioScience, LLC, priority 2005, published 2018).

Data set [1] addresses albumin (Homo sapiens, UniProt P02768). Description: Binding of compounds to albumin.
For data set [2], the system named is MX-1 mammary tumor cells. The experiment in a line: Cytotoxic activity on MX-1 mammary tumor cells in culture. The following applies: for IC50: read-out: Cytotoxicity on MX-1, IC50.
A short description of data set [3]: Hydrophobicity by relative elution time from a C18 HPLC column. Type of data set: physicochemical. The following applies: for HPLC retention time (min) Condition 1: acetonitrile / ammonium acetate buffer pH 6.4 with 5 mM TBAP gradient, 0.8 mL/min; for HPLC retention time (min) Condition 1 / HPLC retention time (min) Condition 2: column temperature 35° C.; for HPLC retention time (min) Condition 2: acetonitrile/water gradient 50:50 to 90:10, 1 mL/min; for HPLC retention time (min) Condition 2, column temperature 70° C.: acetonitrile/water gradient, 1 mL/min, **column temperature was set at 70° C. The source says: To increase the penetration and retention of a drug released from a device such as a stent into the vascular wall or wall of other vessel or tissue, several drugs were modified to increase their hydrophobicity. […] […] The longer the elution time, the more hydrophobic the compound.

Data set [4] has as its system MX-1 mammary tumor cells.
[5] abbreviates: smaller number indicates greater binding affinity, read-out: Albumin Binding, KD.
Where [6] appears, read: MX-1 mammary tumor cells in culture, drug itself.

Values joined by “and” are separate entries in the source; they are usually repeats but may differ in a detail not shown here. Equal entries are not always repeated. Where two headings read alike, the source gives them in different places.

Chain of albumin (P02768 25-609, species assumed): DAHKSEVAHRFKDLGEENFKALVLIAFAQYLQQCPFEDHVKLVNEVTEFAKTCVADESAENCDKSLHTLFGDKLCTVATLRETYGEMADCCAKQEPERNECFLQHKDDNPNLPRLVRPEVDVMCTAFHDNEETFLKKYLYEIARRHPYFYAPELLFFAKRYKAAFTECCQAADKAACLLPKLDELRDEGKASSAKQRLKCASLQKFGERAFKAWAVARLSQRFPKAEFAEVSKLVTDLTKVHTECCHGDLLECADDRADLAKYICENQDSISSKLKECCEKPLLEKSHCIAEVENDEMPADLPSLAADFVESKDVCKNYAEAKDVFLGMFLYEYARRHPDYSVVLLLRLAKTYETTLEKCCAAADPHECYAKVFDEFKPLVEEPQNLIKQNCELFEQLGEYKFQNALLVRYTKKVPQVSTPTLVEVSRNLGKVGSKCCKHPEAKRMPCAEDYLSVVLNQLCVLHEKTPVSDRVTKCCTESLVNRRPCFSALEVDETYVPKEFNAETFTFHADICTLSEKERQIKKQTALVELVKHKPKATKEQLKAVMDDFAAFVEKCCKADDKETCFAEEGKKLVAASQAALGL

As a reminder, the Kd is the constant that tells how readily two partners part at equilibrium. Usually IC50 stands for the concentration that inhibits the measured activity by half. Regarding `CC(=O)OC1C(=O)C2(C)C(O)CC3OCC3(OC(C)=O)C2C(OC(=O)c2ccccc2)C2(O)CC(OC(=O)C(OC(=O)c3ccccc3)C(NC(=O)c3ccccc3)c3ccccc3)C(C)=C1C2(C)C` (centres unmarked) [Compound 1], the Kd in data set [1] (setting [5]) amounted to 103 µM. The IC50 in data set [2] (setting [6]) came out at 30 µM.

In the case of `CC(=O)OC12COC1CC(O)C1(C)C(=O)C(O)C3=C(C)C(OC(=O)C(OC(=O)c4ccccc4)C(NC(=O)OC(C)(C)C)c4ccccc4)CC(O)(C(OC(=O)c4ccccc4)C21)C3(C)C` (centres unmarked) [Compound 2, 2′ BENZOYL DOCETAXEL], in data set [1] (setting [5]), the Kd worked out at 8.8 µM. Besides, in data set [2], the concentration for half-maximal inhibition (IC50) amounted to 38 µM.

With `CCc1c2c(nc3ccc(O)cc13)-c1cc3c(c(=O)n1C2)COC(=O)[C@]3(O)CC` [Compound 6], in data set [3], the “HPLC retention time (min) Condition 1” value stood at 7.8 min and the “HPLC retention time (min) Condition 2” value stood at 2.2 min. Also, in data set [1] (setting [5]), the Kd amounted to 484 µM. In addition, in data set [2] (setting [6]), the IC50 was 267 µM.

For `CCC(=O)Oc1ccc2nc3c(cc2c1)Cn1c-3cc2c(c1=O)COC(=O)C2(CC)OC(=O)CC` (centres unmarked) [Compound 7], in data set [3], the “HPLC retention time (min) Condition 1” value was found to be 19.8 min and the “HPLC retention time (min) Condition 2, column temperature 70° C.” value is listed as 6.1** min. Moreover, the IC50 in data set [2] (setting [6]) came to 45 µM.

As for `CCCC(=O)Oc1ccc2nc3c(cc2c1)Cn1c-3cc2c(c1=O)COC(=O)[C@@]2(CC)OC(=O)CCC` [Compound 8], the “HPLC retention time (min) Condition 1” value in data set [3] is on record as 21.9 min. For the same compound, the IC50 in data set [2] (setting [6]) came out at 152 µM.

In the case of `CCC1(OC(=O)C(C)C)C(=O)OCc2c1cc1n(c2=O)Cc2cc3cc(OC(=O)C(C)C)ccc3nc2-1` (centres unmarked) [Compound 9], in data set [3], the “HPLC retention time (min) Condition 1” value is 22.0 min. Further, the IC50 in data set [2] (setting [6]) turned out to be 23 µM.

Consider `CCCCCC(=O)Oc1ccc2nc3c(cc2c1)Cn1c-3cc2c(c1=O)COC(=O)[C@@]2(CC)OC(=O)CCCCC` [Compound 10, CAMPTOTHECIN 10,20-DI O HEXONATE], for which the “HPLC retention time (min) Condition 1” value in data set [3] amounted to 25.3 min. Besides, in data set [2] (setting [6]), the IC50 turned out to be 8 µM.

With `CCC1(OC(=O)CNC(=O)OC(C)(C)C)C(=O)OCc2c1cc1n(c2=O)Cc2cc3cc(OC(=O)CNC(=O)OC(C)(C)C)ccc3nc2-1` (centres unmarked) [Compound 11], the “HPLC retention time (min) Condition 1” value in data set [3] is on record as 20.9 min. The IC50 in data set [2] (setting [6]) amounted to 221 µM.

In the case of `CCC1(OC(=O)COC)C(=O)OCc2c1cc1n(c2=O)Cc2cc3cc(OC(=O)COC)ccc3nc2-1` (centres unmarked) [Compound 12], the “HPLC retention time (min) Condition 1” value in data set [3] was 14.1 min. The 50% inhibitory concentration (IC50) in data set [2] (setting [6]) was 372 µM.

As for `CCC1(OC(=O)CN)C(=O)OCc2c1cc1n(c2=O)Cc2cc3cc(OC(=O)CN)ccc3nc2-1` (centres unmarked) [Compound 13], in data set [3], the “HPLC retention time (min) Condition 1” value came out at 6.1 min. In data set [2] (setting [6]), the IC50 was found to be 242 µM.

On to `CCC1(OC(=O)c2ccccc2)C(=O)OCc2c1cc1n(c2=O)Cc2cc3cc(OC(=O)c4ccccc4)ccc3nc2-1` (centres unmarked) [Compound 14], for which the “HPLC retention time (min) Condition 1” value in data set [3] came out at 22.9 min. In data set [2] (setting [6]), the IC50 turned out to be 740 µM.

For the compound `CCC(=O)Oc1ccc2nc3c(c(CC)c2c1)Cn1c-3cc2c(c1=O)COC(=O)[C@@]2(CC)OC(=O)CC` [Compound 15], in data set [3], the “HPLC retention time (min) Condition 1” value is listed as 20.8 min and the “HPLC retention time (min) Condition 2, column temperature 70° C.” value is 9.3** min. In data set [2] (setting [6]), the IC50 came to 28 µM.

As to `CCCCCC(=O)Oc1ccc2nc3c(cc2c1)Cn1c-3cc2c(c1=O)COC(=O)C2(CC)OC(=O)CCCCC` (centres unmarked) [Compound 16], the IC50 in data set [2] (setting [6]) came to 4 µM.

For `C=CCNC1=C2C[C@@H](C)C[C@H](OC)[C@H](O)[C@@H](C)/C=C(\C)[C@H](OC(N)=O)[C@@H](OC)/C=C\C=C(/C)C(=O)NC(=CC1=O)C2=O` [Compound 17AAG, 17AAG, reference compound], the “HPLC retention time (min) Condition 2” value in data set [3] came to 14.9 min. Moreover, the IC50 in data set [2] (setting [6]) came out at 3 µM.

On to `CCCCCCCCCC(=O)Oc1ccc2nc3c(c(CC)c2c1)Cn1c-3cc2c(c1=O)COC(=O)[C@@]2(CC)OC(=O)CCCCCCCCC` [Compound 17], for which the “HPLC retention time (min) Condition 2” value in data set [3] came out at 31.2 min. The IC50 in data set [2] (setting [6]) worked out at 2000 µM.

`CCCCCCCCCCCCCC(=O)Oc1ccc2nc3c(c(CC)c2c1)Cn1c-3cc2c(c1=O)COC(=O)[C@@]2(CC)OC(=O)CCCCCCCCCCCCC` [Compound 18]: the “HPLC retention time (min) Condition 2” value in data set [3] stood at 31.2 min. In addition, in data set [2] (setting [6]), the “Cytotoxicity on MX-1, IC50” value is reported as “Inactive”.

Regarding `CCCCCCCCCCCC(=O)Oc1ccc2nc3c(c(CC)c2c1)Cn1c-3cc2c(c1=O)COC(=O)[C@@]2(CC)OC(=O)CCCCCCCCCCC` [Compound 19], the “HPLC retention time (min) Condition 2” value in data set [3] is recorded as 31.2 min. In addition, in data set [2] (setting [6]), the “Cytotoxicity on MX-1, IC50” value was “Inactive”.

As for `CCCCCCCCCCCCCCCCCC(=O)Oc1ccc2nc3c(c(CC)c2c1)Cn1c-3cc2c(c1=O)COC(=O)[C@@]2(CC)OC(=O)CCCCCCCCCCCCCCCCC` [Compound 20], in data set [3], the “HPLC retention time (min) Condition 2” value amounted to 30.6 min. The “Cytotoxicity on MX-1, IC50” value in data set [2] (setting [6]) is “Inactive”.

Regarding `CCc1c2c(nc3ccc(OC(=O)CCCC(C)CC)cc13)-c1cc3c(c(=O)n1C2)COC(=O)[C@@]3(CC)OC(=O)CCCC(C)CC` (some centres unmarked) [Compound 21], the “HPLC retention time (min) Condition 2” value in data set [3] amounted to 40.2 min. The IC50 in data set [2] (setting [6]) was 295 µM.

On to `CCCCCCCCCCCCCCCC(=O)Oc1ccc2nc3c(cc2c1)Cn1c-3cc2c(c1=O)COC(=O)C2(CC)OC(=O)CCCCCCCCCCCCCCC` (centres unmarked) [Compound 22], for which the “HPLC retention time (min) Condition 2” value in data set [3] is reported as 30.5 min. Besides, in data set [2] (setting [6]), the “Cytotoxicity on MX-1, IC50” value is “Inactive”.

On to `COc1cc2c(c(OC)c1OC)-c1ccc(SC)c(=O)cc1[C@@H](NC(=O)CCNC(=O)N[C@H]1CCc3cc(OC)c(OC)c(OC)c3-c3ccc(SC)c(=O)cc31)CC2` [Compound 24], for which binding in data set [1] was put at a Kd of 109 µM. In addition, in data set [2], the IC50 came out at 37 µM.

`COc1cc2c(c(OC)c1OC)-c1ccc(SC)c(=O)cc1[C@@H](NC(=O)CCCCCCCCC(=O)N[C@H]1CCc3cc(OC)c(OC)c(OC)c3-c3ccc(SC)c(=O)cc31)CC2` [Compound 25] showed an equilibrium dissociation constant (Kd) in data set [1] of 30 µM. Moreover, in data set [2], the IC50 turned out to be 155 µM.

As for `COc1cc2c(c(OC)c1OC)-c1ccc(SC)c(=O)cc1[C@@H](NC(=O)c1cncc(C(=O)N[C@H]3CCc4cc(OC)c(OC)c(OC)c4-c4ccc(SC)c(=O)cc43)c1)CC2` [Compound 26], the Kd in data set [1] was determined as 28 µM. For the same compound, the IC50 in data set [2] was 361 µM.

In turn, `COc1cc2c(c(OC)c1OC)-c1ccc(SC)c(=O)cc1[C@@H](NC(=O)C1CCCC(C(=O)N[C@H]3CCc4cc(OC)c(OC)c(OC)c4-c4ccc(SC)c(=O)cc43)C1)CC2` (some centres unmarked) [Compound 27] yielded a Kd in data set [1] of 52 µM.

`COC1C=CC=C(C)C(=O)NC2=CC(=O)C(N3CC3C)=C(CC(C)CC(OC)C(O)C(C)C=C(C)C1OC(N)=O)C2=O` (centres unmarked) [Compound 30, 17-METHYLAZIRIDINYL-17-DEMETHOXYGELDANAMYCIN]: the “HPLC retention time (min) Condition 2” value in data set [3] was 11.1 min and 11.6 min. This compound also registered an IC50 in data set [4] of 0.3 µM.

Turning to `CC[C@@]1(O)C(=O)OCc2c1cc1n(c2=O)Cc2cc3cc(O)ccc3nc2-1` [Compound 32], in data set [3], the “HPLC retention time (min) Condition 1” value came out at 6.1 min and the “HPLC retention time (min) Condition 2” value is 1.9 min. The dissociation constant Kd in data set [1] was determined as 1200 µM. Further, in data set [2], the IC50 is 13 µM.

`CC(=O)O[C@@]12CO[C@@H]1C[C@H](O)[C@@]1(C)C(=O)[C@H](O)C3=C(C)[C@@H](OC(=O)[C@H](O)[C@@H](NC(=O)OC(C)(C)C)c4ccccc4)C[C@@](O)([C@@H](OC(=O)c4ccccc4)[C@H]21)C3(C)C` [Docetaxel, reference compound]: in data set [3], the “HPLC retention time (min) Condition 2” value was determined as 9.0 min. In addition, in data set [1] (setting [5]), the Kd turned out to be 5.45 µM.

Take `COC1=C2C[C@@H](C)C[C@H](OC)[C@H](O)[C@@H](C)/C=C(\C)[C@H](OC(N)=O)[C@@H](OC)/C=C\C=C(/C)C(=O)NC(=CC1=O)C2=O` [Geldanamycin, reference compound]: the “HPLC retention time (min) Condition 2” value in data set [3] is 10.8 min. Besides, the IC50 in data set [2] (setting [6]) was 0.5 µM.

On to `CC(=O)O[C@H]1C(=O)[C@@]2(C)[C@H]([C@H](OC(=O)c3ccccc3)[C@]3(O)C[C@H](OC(=O)[C@H](O)[C@@H](NC(=O)c4ccccc4)c4ccccc4)C(C)=C1C3(C)C)[C@]1(OC(C)=O)CO[C@@H]1C[C@@H]2O` [Paclitaxel, reference compound], for which, in data set [3], the “HPLC retention time (min) Condition 2” value is given as 10.5 min. In addition, in data set [1] (setting [5]), the Kd turned out to be 39.8 µM.

As for `CO[C@H]1C[C@@H]2CC[C@@H](C)[C@@](O)(O2)C(=O)C(=O)N2CCCC[C@H]2C(=O)O[C@H]([C@H](C)C[C@@H]2CC[C@@H](O)[C@H](OC)C2)CC(=O)[C@H](C)/C=C(\C)[C@@H](O)[C@@H](OC)C(=O)[C@H](C)C[C@H](C)/C=C/C=C/C=C/1C` [Rapamycin, reference compound], the Kd in data set [1] (setting [5]) was determined as 102 µM. Further, in data set [2] (setting [6]), the IC50 worked out at 27 µM.

For the compound Benzoyl rapamycin [Compound 23], the “HPLC retention time (min) Condition 2, column temperature 70° C.” value in data set [3] was 32.6** min.
